This note sets out measurements from patent US20250115596A1, “ESTERS OF 8-METHYL-8-AZABICYCLO[3.2.1] OCTAN-3-YL 3-HYDROXY-2-PHENYLPROPANOATE” (ADS Therapeutics LLC, priority 2022, published 2025).

In brackets after ≈: the same amount, converted by molar mass. Structures can show the parent of a compound that is named as a salt.

Data set [1] relates to Dutch Belted rabbits. Kind of data set: In vivo pharmacology study: pupil size after topical ocular instillation of eye drop formulation. The following applies: for pupil size change from baseline: female Dutch Belted rabbits; for retention of pupil dilation during the measurement period: measured up to 24 hour after dosing. How it is done: The test compound was administered to each animal by topical ocular instillation of 40 μL of eye drop formulation just once at day 1. The pupil size of both eyes of all animals were measured at baseline (30 minutes before dosing), 0.5 hour, 1 hour, 2 hour, 4 hour, 6 hour, 8 hour, 12 hour, and 24 hour after dosing. Pupil sizes were measured in both eyes of all animals on 3 separate days during acclimation prior to dosing initiation. Set the light intensity in the procedure room so that the animal's pupil size was about 6-7 mm. Light intensity of the procedure room for pupil size measurement should be maintained constant throughout the pupil size measurement procedures in the study. Pupil size change from baseline was calculated for each eye of each individual animal separately for each postdose timepoint. Mean and standard error of pupil size change from baseline were calculated for each group per postdose timepoint and plotted mean of pupil change from baseline against timepoint comparisons.

Data set [2] is described as follows: physchem. To be noted: organic solvent or mixture, thermodynamic from solid.
[3] abbreviates: 0.4% formulation in F6H8, single 40 μL eye drop.

With `CCCCCCCC/C=C\CCCCCCCC(=O)OCC(C(=O)O[C@H]1C[C@H]2CC[C@@H](C1)N2C)c1ccccc1` (stereo partly drawn) [Compound 1, 3-(((1R,3r,5S)-8-methyl-8-azabicyclo[3.2.1]octan-3-yl)oxy)-3-oxo-2-phenylpropyl (9Z)-octadec-9-enoate], in data set [1] (setting [3]), the “pupil size change from baseline” value is “comparable pupil size dilation as the 0.01% atropine sulfate monohydrate” and the “retention of pupil dilation during the measurement period” value is given as “retained the pupil dilation throughout the measurement period”. Further, in data set [2], the solubility (as a rule, the concentration that dissolves in the medium under given conditions) at 30 min was determined as 5000 µg/mL (≈ 9.03 mM). Turning to `CCCCC/C=C\C/C=C\CCCCCCCC(=O)OCC(C(=O)O[C@H]1C[C@H]2CC[C@@H](C1)N2C)c1ccccc1` (stereo partly drawn) [Compound 2, 3-(((1R,3r,5S)-8-methyl-8-azabicyclo[3.2.1]octan-3-yl)oxy)-3-oxo-2-phenylpropyl (9Z,12Z)-octadeca-9,12-dienoate], in data set [1] (setting [3]), the “pupil size change from baseline” value is “over 10%” and the “retention of pupil dilation during the measurement period” value was “remained significantly dilated from baseline during the measurement period”. For the same compound, the solubility at 30 min in data set [2] stood at 3870 µg/mL (≈ 7.01 mM). Regarding `CCCCCCCCCCCCCCCC(=O)OCC(C(=O)O[C@H]1C[C@H]2CC[C@@H](C1)N2C)c1ccccc1` (some centres unmarked) [Compound 7, atropine palmitate], in data set [2], the solubility at 30 min was determined as 5610 µg/mL (≈ 10.6 mM). On the same count and under the same terms, the value for `CCCCCC=CCCC(=O)OCC(C(=O)O[C@H]1C[C@H]2CC[C@@H](C1)N2C)c1ccccc1` (some centres unmarked) [Compound 13, atropine dec-4-enoate] was 4900 µg/mL (≈ 11.1 mM). With `CN1[C@@H]2CC[C@H]1C[C@@H](OC(=O)C(CO)c1ccccc1)C2` (some centres unmarked) [atropine sulfate monohydrate, reference compound], the “pupil size change from baseline” value in data set [1] (0.01% in normal saline, single 40 μL eye drop, 1 hour or 2 hour post-dose) is recorded as “about 5%”. On to `CC(C)CCC[C@@H](C)[C@H]1CC[C@H]2[C@@H]3CC=C4C[C@@H](O)CC[C@]4(C)[C@H]3CC[C@]12C` [cholesterol, reference compound], for which, in data set [2] (perfluorohexyloctane (F6H8)), the solubility at 30 min was found to be 79.7 µg/mL (≈ 0.206 mM). Take `CCCCCCCCCCCCCCCCCC(=O)O[C@H]1CC[C@@]2(C)C(=CC[C@H]3[C@@H]4CC[C@H]([C@H](C)CCCC(C)C)[C@@]4(C)CC[C@@H]32)C1` [cholesteryl stearate, reference compound]: in data set [2], the solubility at 30 min amounted to 26.2 µg/mL (≈ 0.0402 mM).
